Source: article PMC8890542, “Discovery of novel paeonol-based derivatives against skin inflammation in vitro and in vivo” (Journal of Enzyme Inhibition and Medicinal Chemistry, 2022)

Tests used:
[1] = system: LPS-induced nitric oxide production in RAW264.7 cells; test: LPS-induced NO production, Griess Reagent assay; assay type: cell-based, mouse; conditions: Mus musculus
Experimental: RAW264.7 cells (7 × 10^4 cells/well) were seeded into 48-well plate and used for experiments after 24 h. […] After 24 h collect cell supernatant, NO production was measured using Griess Reagent assay (Beyotime). Griess reagent were mixed at a ratio of 1:1, and reacted at room temperature for 15 min. Measurement of absorbance at […] with enzyme reader. At least three independent experiments were performed for the determination of IC50 values, which were shown as mean ± SD. All experimental data were analysed by using GraphPad Prism software, version 8.0 (GraphPad Inc.).

[2] = Human liver microsomes stability assay in vitro; assay type: in vitro ADME
Experimental: The livers were homogenised initially in a Tris (0.1 M)/KCl (0.1 M)/EDTA (1 mM)/butylated sodium hydroxytoluene (BHT) (0.02 mM) buffer. Add 1.5 µL control/test compound B12 working solution to 238.5 µL liver microsome working solution, gently mix. Pre-incubate at 37 °C for 5 min. Start the reaction by adding 60 µL NADPH working solution. Mix by pipetting up and down. At each time point: 0, 5, 15, 30 and 60 min, remove 30 µL of reaction mixture to 300 µL of quenching solution. Vortex vigorously for ∼1 min and centrifuge at 4000 rpm at 4 °C for 15 min. Remove 100 µL of the supernatant and mixed with 100 µL distilled water for LC-MS/MS analysis.

COX-2 = test: Western blot of COX-2 in LPS-stimulated RAW264.7 cells; assay type: cell-based, mouse; conditions: 2.5, 5, 10 µM, 1 h, LPS 24 h
Experimental: (§1) RAW264.7 cells were seeded into 6-well plate with 2 × 10^6 cells per well and maintained about 24 h, and then pre-treated with compound B12 (2.5, 5, 10 µM) for 1 h, co-treated with LPS (0.5 µg/mL) for 0.5 h or 24 h. Western blotting assay was performed as the method described previously. Briefly, the cells were lysed in […] RIPA cell lysis buffer (Contains PMSF and phosphatase inhibitors, Beyotime China) and incubated on ice for 30 min. Collecting supernatant by centrifugation. The same amount of protein was separated by SDS-PAGE and transferred to PVDF membrane (GE Healthcare, Amersham, UK). The blotted membrane incubated with the primary antibodies and allowed to react for an additional 16 h at 4 °C. All antibodies obtain from Cell Signalling Technology, Boston, MA. The membranes incubated with a 1:5000 dilutions of HRP-conjugated secondary antibody (Beyotime Biotech, Nantong, China) for 1 h at room temperature. Signals were visualised using ECL system (Thermo Fisher Scientific, Waltham, MA).

JNK [3] = test: Western blot, SUV-induced JNK phosphorylation in HaCaT cells; assay type: cell-based, human; conditions: SUV (40 kJ/m^2) 30 min
Experimental: (§2) HaCaT cells were seeded into 6-well plate with 2 × 10^6 cells per well. After 24 h culture and 12 h starvation, they were stimulated with SUV irradiation. The cells were irritated with 40 KJ/m^2 doses of SUV at 30 min. In order to study the effect of compound B12, the cells were starved in serum-free medium for 12 h, and then pre-treated with compound B12 (2.5, 5, 10 μM) for 6 h before SUV irradiation. Follow the same steps as above to transfer the electrophoretic band to PVDF membrane. All steps were performed in the same way as above except that the types of primary and secondary antibodies were different.

NF-κB p65 = test: Western blot, LPS-induced NF-κB p65 translocation in RAW264.7; assay type: cell-based, mouse; conditions: LPS (0.5 μg/mL) 30 min
Experimental: as §1

JNK [4] = test: Western blot, LPS-induced JNK phosphorylation in RAW264.7; assay type: cell-based, mouse; conditions: LPS (0.5 μg/mL) 30 min
Experimental: as §1

RAW264.7 cells = test: Cell viability assay (MTT), RAW264.7; assay type: cell-based, mouse; conditions: 24 h, read-out: Cytotoxicity IC50 with RAW264.7
Experimental: (§3) RAW264.7 cells (1 × 10^4 cells/well) were seeded into 96-well plate and used for experiments after 24 h. Compounds (4 µM, 20 µM and 100 µM) treated cell for 24 h. Forty microliters of MTT solution (5 mg/mL, Sigma-Aldrich) was then added and incubated for an additional 4 h. After 4 h, cell culture supernatants were removed and DMSO (150 µL) was added into per well for dissolving the resulting crystals. Shaking about 1 0 ∼ 15 min and the absorbance at 492 nm was measured by a microplate reader (MQX200, Bio-Tek, Winooski, VT). At least three independent experiments were performed for the determination of IC50 values, which were shown as mean ± SD. All experimental data were analysed by using GraphPad Prism software, version 8.0 (GraphPad Inc.).

[5] = Cell viability assay (MTT), RAW264.7; assay type: cell-based, mouse; conditions: mouse, RAW264.7 cells, read-out: Cytotoxicity IC50 with RAW264.7
Experimental: as §3

[6] = system: IMQ-induced psoriasis mouse model; test: IMQ-induced psoriasis-like skin inflammation mouse model; assay type: in vivo, BALB/c mice
Source text: During treatment for 7 days, to score the severity of inflammation of mouse skin, an objective scoring system was developed based on the clinical psoriasis area and severity index. Erythema, scaling, and thickening were scored independently from 0 to 4 as follows: 0, none; 1, slight; 2, moderate; 3, marked; 4, very marked and weight loss. The cumulative score (erythema plus scaling plus thickening) served to indicate the severity of inflammation (scale 0 ∼ 12). On the 8th day, the mice were taken eyeball blood and back skin. One-half of the samples were immediately fixed in 4% paraformaldehyde and for haematoxylin and eosin (H&E) staining. The other samples were put in a −80 °C freezer. Before used, they were placed at room temperature for 30 min. After that, they were added 1 × PBS proportionally, homogenised and centrifuged. The supernatant was collected and used for ELISA assay and Western blot assay. […] The histological image was obtained using 3[sequence]’s Slide Converter (3[sequence], Hungary).

STAT3 = test: Western blot, SUV-induced STAT3 phosphorylation in HaCaT cells; assay type: cell-based, human; conditions: 2.5 μM to 10 μM, 6 h before 40 KJ/m^2 SUV
Experimental: as §2

iNOS = test: Western blot of iNOS in LPS-stimulated RAW264.7 cells; assay type: cell-based, mouse; conditions: 2.5, 5, 10 µM, 1 h, LPS 24 h
Experimental: as §1

P38 [7] = test: Western blot, LPS-induced p38 phosphorylation in RAW264.7; assay type: cell-based, mouse; conditions: LPS (0.5 μg/mL) 30 min
Experimental: as §1

TOPK = target: T1, TOPK (Homo sapiens, UniProt Q96KB5); test: Cellular thermal shift assay (CETSA); assay type: binding; conditions: especially at 57 °C
T1 construct: endogenous in cells
T1 sequence (Q96KB5 1-322): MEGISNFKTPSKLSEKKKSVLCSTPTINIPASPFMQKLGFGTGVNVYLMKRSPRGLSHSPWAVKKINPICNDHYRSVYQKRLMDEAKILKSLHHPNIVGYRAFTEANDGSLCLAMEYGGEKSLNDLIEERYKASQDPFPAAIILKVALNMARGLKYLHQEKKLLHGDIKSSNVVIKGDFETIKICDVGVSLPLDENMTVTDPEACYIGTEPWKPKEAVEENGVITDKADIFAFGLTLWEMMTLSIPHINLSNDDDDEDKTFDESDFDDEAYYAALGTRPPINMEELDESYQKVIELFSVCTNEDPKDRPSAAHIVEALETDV
Source text: Based on the ligand-induced thermal stabilisation of target proteins, the cellular thermal shift assay (CETSA) assay is likely to validate drug binding, off-target effects or drug resistance in cell lines. To further detect the direct binding of compound B12 with TOPK protein, CETSA was used in this study.

[8] = Cell viability assay (MTT), LO2; assay type: cell-based; conditions: human, LO2 cells, read-out: Cytotoxicity IC50 with LO2
LPS-induced HaCaT cells = test: Hyperproliferation assay, LPS-stimulated HaCaT cells (MTT); assay type: cell-based, human; conditions: pre-treated 6 h, LPS 24 h
Experimental: HaCaT cells were seeded in 96-well plates and cultured at 37 °C in a humidified 5% CO2 atmosphere. When the cell confluency reached 60–70%, HaCaT cells were then starved in serum-free DMEM for 12 h before stimulated by 100 ng/mL LPS for 24 h to mimic hyperproliferative psoriatic keratinocytes. The cell viability was measured by MTT method. Results are expressed as the percentage survival of cells in the cell treated group and the untreated control group (without the tested compound and LPS).

γ-H2AX = test: Western blot, SUV-induced γ-H2AX in HaCaT cells; assay type: cell-based, human; conditions: 2.5 μM to 10 μM, 6 h before 40 KJ/m^2 SUV
Experimental: as §2

p38 [9] = test: Western blot, SUV-induced p38 phosphorylation in HaCaT cells; assay type: cell-based, human; conditions: SUV (40 kJ/m^2) 30 min
Experimental: as §2

IC50 ([1]; LPS (0.5 μg/mL) 24 h): 2.14 µM | CLhep ([2]; human): 0.51 L/h/kg | half-life ([2]; human liver microsomes): 1.85 h | microsomal CLint ([2]; human liver microsomes): 12.5 µL/min/mg | Thermal stability of TOPK (CETSA) (TOPK): stabilised
Compound: COc1cc(O)c(C(C)=O)cc1NC(=O)Nc1cccc(C(F)(F)F)c1 [Compound B12, 1–(5-acetyl-4-hydroxy-2-methoxyphenyl)-3–(3-(trifluoromethyl)phenyl) urea]
inhibition at 10 µM ([1]; compounds 10 μM, 1 h, then LPS (0.5 μg/mL) 24 h, read-out: Inhibition rate±SD (%) against NO production): 95.5 ± 3.26% | Expression of COX-2 (COX-2): inhibited by compound B12 in a dose-dependent manner | Phosphorylation of JNK, SUV-induced (JNK [3]): inhibited | NF-κB p65 translocation into the nucleus (NF-κB p65): inhibited | JNK protein phosphorylation (JNK [4]): inhibited | IC50 (RAW264.7 cells): > 100 µM | IC50 at 24 h [5]: > 50 µM | Pathological reduction, H&E of skin tissue ([6]; 20 mg/kg, intragastric once a day, 7 days): moderate pathological reduction | Pathological reduction, H&E of skin tissue ([6]; 40 mg/kg, intragastric once a day, 7 days): high pathological reduction | Expression of related proteins (p-STAT3, p-TOPK, TOPK, p-p38, p-JNKs, PCNA, p-H2AX) in mouse skin tissues ([6]; 20 and 40 mg/kg, Western blot): decreased significantly | Experimental symptoms and PASI score ([6]; B12 20 and 40 mg/kg, Dex 20 mg/kg, intragastric once a day, 7 days): significantly attenuated experimental symptoms and PASI score in a dose-dependent manner | Level of phosphorylated STAT3 (STAT3): gradually decreased | Expression of iNOS (iNOS): inhibited by compound B12 in a dose-dependent manner | P38 protein phosphorylation (P38 [7]): inhibited | IC50 at 24 h [8]: > 100 µM | Excessive proliferation of LPS-induced HaCaT cells (LPS-induced HaCaT cells): inhibited excessive proliferation of LPS-induced HaCaT cells in a dose dependent manner | Level of phosphorylated γ-H2AX (γ-H2AX): gradually decreased | Phosphorylation of p38, SUV-induced (p38 [9]): inhibited
